Measurements as given in the supplement of paper PMC10307832.

Columns and labels:
Test in all cases: relative viability (nuclei count vs DMSO), 5 days (fraction); higher = more cells survive
Adavosertib + Olaparib = compound: C=CCn1c(=O)c2cnc(Nc3ccc(N4CCN(C)CC4)cc3)nc2n1-c1cccc(C(C)(C)O)n1 [Adavosertib] + O=C(c1cc(Cc2n[nH]c(=O)c3ccccc23)ccc1F)N1CCN(C(=O)C2CC2)CC1 [Olaparib] (partner 8 µM)
How it was run: (§1)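 Values are medians from duplicate plates. Each reflects relative viability, defined as the nuclei count of treated wells over that of vehicle wells. Lung cancer cell lines in 1536-well plates were pin-tool dosed one day after seeding with one drug alone or with a fixed anchor-drug dose plus five library-drug doses (not always all listed) in √10 steps, then fixed, stained and imaged at 4× after 5 days.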

Nelarabine + Decitabine = compound: COc1nc(N)nc2c1ncn2[C@@H]1O[C@H](CO)[C@@H](O)[C@@H]1O [Nelarabine] + Nc1ncn([C@H]2C[C@H](O)[C@@H](CO)O2)c(=O)n1 [Decitabine] (partner 2 µM)
How it was run: as §1

Nelarabine + Tozasertib = compound: COc1nc(N)nc2c1ncn2[C@@H]1O[C@H](CO)[C@@H](O)[C@@H]1O [Nelarabine] + Cc1cc(Nc2cc(N3CCN(C)CC3)nc(Sc3ccc(NC(=O)C4CC4)cc3)n2)n[nH]1 [Tozasertib] (partner 0.1 µM)
How it was run: as §1

Adavosertib + Lapatinib = compound: C=CCn1c(=O)c2cnc(Nc3ccc(N4CCN(C)CC4)cc3)nc2n1-c1cccc(C(C)(C)O)n1 [Adavosertib] + CS(=O)(=O)CCNCc1ccc(-c2ccc3ncnc(Nc4ccc(OCc5cccc(F)c5)c(Cl)c4)c3c2)o1 [Lapatinib] (partner 2 µM)
How it was run: as §1

Row | Cell Line | relative viability (Adavosertib + Olaparib; first compound 0.01 µM) | relative viability (Adavosertib + Olaparib; first compound 0.03162 µM) | relative viability (Adavosertib + Olaparib; first compound 0.1 µM) | relative viability (Adavosertib + Olaparib; first compound 0.3162 µM) | relative viability (Nelarabine + Decitabine; first compound 0.01 µM) | relative viability (Nelarabine + Decitabine; first compound 0.03162 µM) | relative viability (Nelarabine + Decitabine; first compound 0.1 µM) | relative viability (Nelarabine + Decitabine; first compound 0.3162 µM) | relative viability (Nelarabine + Decitabine; first compound 1 µM) | relative viability (Nelarabine + Tozasertib; first compound 0.01 µM) | relative viability (Nelarabine + Tozasertib; first compound 0.03162 µM) | relative viability (Nelarabine + Tozasertib; first compound 0.1 µM) | relative viability (Nelarabine + Tozasertib; first compound 0.3162 µM) | relative viability (Nelarabine + Tozasertib; first compound 1 µM) | relative viability (Adavosertib + Lapatinib; first compound 0.01 µM) | relative viability (Adavosertib + Lapatinib; first compound 0.03162 µM) | relative viability (Adavosertib + Lapatinib; first compound 0.1 µM) | relative viability (Adavosertib + Lapatinib; first compound 0.3162 µM)
1 | NCI-H647 | 0.549 | 0.581 | 0.459 | 0.209 | 0.483 | 0.385 | 0.381 | 0.357 | 0.38 | 0.347 | 0.207 | 0.387 | 0.24 | 0.247 | 1.23 | 1.08 | 1.08 | 0.727
2 | NCI-H2347 | 0.584 | 0.595 | 0.548 | 0.54 | 0.576 | 0.596 | 0.615 | 0.626 | 0.593 | 0.659 | 0.443 | 0.523 | 0.565 | 0.225 | 0.889 | 0.912 | 1.13 | 1.03
3 | NCI-H1395 | 0.561 | 0.547 | 0.409 | 0.438 | 0.678 | 0.65 | 0.723 | 0.7 | 0.704 | 0.839 | 0.67 | 0.814 | 0.729 | 0.657 | 0.824 | 1.31 | 1.03 | 0.78
4 | NCI-H522 | 0.724 | 0.644 | 0.647 | 0.734 | 0.724 | 0.763 | 0.608 | 0.684 | 0.558 | 0.529 | 0.605 | 0.456 | 0.615 | 0.627 |  |  |  | 
5 | NCI-H2087 | 0.663 | 0.595 | 0.606 | 0.604 | 0.248 | 0.28 | 0.309 | 0.335 | 0.3 | 0.303 | 0.24 | 0.22 | 0.19 | 0.245 | 0.951 | 1.21 | 1.15 | 1.3
6 | EPLC-272H | 0.955 | 0.674 | 0.566 | 0.2 | 0.435 | 0.316 | 0.288 | 0.326 | 0.377 | 0.219 | 0.2 | 0.287 | 0.295 | 0.253 | 0.745 | 0.958 | 0.844 | 0.739
7 | NCI-H838 | 0.784 | 0.805 | 0.804 | 0.613 | 0.54 | 0.432 | 0.473 | 0.513 | 0.466 | 0.285 | 0.274 | 0.272 | 0.341 | 0.262 | 0.975 | 0.921 | 0.976 | 1.07
8 | NCI-H661 | 0.779 | 0.828 | 0.721 | 0.449 | 0.625 | 0.614 | 0.599 | 0.628 | 0.515 | 0.343 | 0.334 | 0.333 | 0.344 | 0.364 | 0.542 | 0.601 | 0.514 | 0.363
9 | NCI-H2170 | 0.643 | 0.586 | 0.588 | 0.448 | 0.473 | 0.546 | 0.484 | 0.47 | 0.427 | 0.81 | 0.689 | 0.767 | 0.88 | 0.73 | 0.273 | 0.27 | 0.277 | 0.287
10 | NCI-H1703 | 0.507 | 0.545 | 0.387 | 0.141 |  |  |  |  |  |  |  |  |  |  | 1.19 | 1.1 | 0.93 | 0.257
11 | NCI-H1651 | 0.17 | 0.218 | 0.139 | 0.16 | 0.487 | 0.725 | 0.61 | 0.648 | 0.527 | 0.944 | 0.767 | 0.689 | 0.674 | 0.685 | 0.956 | 0.715 | 0.752 | 0.682
12 | LU99A | 0.238 | 0.224 | 0.209 | 0.179 | 1.02 | 0.91 | 0.971 | 0.886 | 0.935 | 0.287 | 0.253 | 0.239 | 0.264 | 0.279 | 1.02 | 0.96 | 0.956 | 0.639
13 | LK-2 | 0.742 | 0.891 | 0.763 | 0.767 | 0.261 |  | 0.272 | 0.341 | 0.319 | 0.172 |  | 0.161 | 0.147 | 0.156 | 0.866 | 1.05 | 1.01 | 0.97
14 | NCI-H1666 | 0.774 | 0.754 | 0.745 | 0.738 | 0.651 | 0.843 | 0.736 | 0.754 | 0.668 | 0.626 | 0.572 | 0.606 | 0.578 | 0.632 | 0.618 | 0.667 | 0.65 | 0.575
15 | H3255 | 0.604 | 0.522 | 0.667 | 0.583 | 0.712 | 0.563 | 0.574 | 0.64 | 0.632 |  | 0.896 | 0.685 | 0.576 | 0.515 | 0.25 | 0.251 | 0.219 | 0.203
16 | SK-MES-1 | 0.748 | 0.805 | 0.379 | 0.233 | 0.359 | 0.347 | 0.375 | 0.422 | 0.35 | 1 | 0.89 | 0.944 | 0.924 | 0.937 | 0.45 | 0.43 | 0.476 | 0.389
17 | NCI-H2023 | 0.496 | 0.432 | 0.338 | 0.168 | 0.239 | 0.207 | 0.241 | 0.223 | 0.219 | 0.416 | 0.41 | 0.39 | 0.33 | 0.422 | 0.787 | 0.735 | 0.599 | 0.344
18 | NCI-H1650 | 0.714 | 0.708 | 0.76 | 0.622 | 0.392 | 0.447 | 0.484 | 0.478 | 0.333 | 0.393 | 0.307 | 0.331 | 0.458 | 0.378 | 0.75 | 0.884 | 0.747 | 0.379
19 | LCLC-97TM1 | 0.412 | 0.369 | 0.439 | 0.303 |  |  | 0.274 | 0.279 | 0.241 | 0.259 | 0.148 | 0.192 | 0.2 | 0.234 |  | 0.703 | 0.804 | 0.686
